Experiment [1] has as its system over 50 other neurotransmitter and neuropeptide receptors including the MCRs. Kind of experiment: Selectivity panel of over 50 other neurotransmitter and neuropeptide receptors. It is filed as binding. As to conditions: at 1 μM.
The target of experiment [2] is T1, GPR139 (Homo sapiens, UniProt Q6DWJ6).
T1 sequence (Q6DWJ6 1-353): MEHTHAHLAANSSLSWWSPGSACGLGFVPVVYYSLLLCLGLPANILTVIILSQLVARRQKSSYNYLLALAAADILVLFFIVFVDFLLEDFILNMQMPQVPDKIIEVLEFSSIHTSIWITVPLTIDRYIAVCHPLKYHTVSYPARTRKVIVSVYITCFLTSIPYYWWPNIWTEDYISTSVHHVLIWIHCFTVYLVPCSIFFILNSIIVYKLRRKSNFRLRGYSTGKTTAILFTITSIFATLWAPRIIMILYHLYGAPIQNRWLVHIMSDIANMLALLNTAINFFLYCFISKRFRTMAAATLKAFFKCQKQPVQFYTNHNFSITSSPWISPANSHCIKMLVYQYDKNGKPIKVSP
Put plainly: [35S]-GTPγS binding assay, membranes of CHO-TREx cells stably expressing GPR139. More on the design: expressed in transfected cells; host or cells: CHO-TREx GPR139 clone#18. It is filed as biochemical. How it is done:
For G-protein inhibitor experiments, CHO-TRex cells stably expressing GPR139 were treated with 100 ng/ml pertussis toxin (Gi/o inhibitor) overnight prior to harvesting cells for membrane preparations. […] Reactions were terminated by rapid filtration through GF/C filterplates (Perkin-Elmer, Waltham, MA, United States) on a Cell Harvester (Perkin-Elmer, Waltham, MA, United States). Filterplates were washed three times with ice-cold wash buffer (50 mM Tris, 5 mM MgCl2) and Microscint-40 was added to each well. Bound radioactivity was measured on a Topcount scintillation counter (Perkin-Elmer, Waltham, MA, United States). […] EC50s were calculated by modeling the response associated with the logarithm of concentration as a three-parameter logistic curve with the Bottom plateau parameter fixed at 0. The fit was obtained using least-squares non-linear regression as implemented in GraphPad Prism 7.0.
On the technique in general: GTPγS is a poorly hydrolysed GTP analogue; its binding reports G protein activation.

Experiment [3] has as its target MC5R + GPR139 (Homo sapiens, UniProt Q6DWJ6). Kind of experiment: Calcium mobilization, HEK-293 transiently expressing MC5R + GPR139. The conditions noted are these: MC5R + GPR139; 10 μM JNJ-3792165 or 1 μM HS-024. It is filed as cell-based. How it is done: (§1) Human MC3R (NM_019888), MC4R (NM_005912), and MC5R (NM_005913) were transiently expressed in HEK-293 cells with and without human GPR139 (KR081941) or the chimeric G-protein Gα16. All genes were cloned into pCIneo (Promega, Madison, WI, United States, #E1841). HEK-293 cells were cultured in DMEM/F12 (Gibco, Grand Island, NY, United States, #11039-021), 10% FBS (Hyclone, Logan, UT, United States, # SH300700.03), 50 units/ml penicillin and 50 μg/ml streptomycin (Mediatech, Manassas, VA, United States, #30-001-CI). Cells were seeded at 4 × 10^6 cells in 10 cm dishes and allowed to grow overnight at 37°C, 5% CO2. On the day of transfection, culture media was replaced with F12-K (Mediatech, Manassas, VA, United States, #10-025-CV), 10% FBS, 20 mM HEPES (Hyclone, Logan, UT, United States, #SH30237.01) and transfected with 15 μg DNA (10 μg MCR:5 μg pCIneo, 10 μg MCR:5 μg Gα16 or 7.5 μg MCR:7.5 μg GPR139) using FuGene HD (Promega, Madison, WI, United States, #E2311) according to manufacturer’s instructions. MC3R, MC4R, and MC5R were also transiently expressed in the following GPR139 stably expressing cell lines using the FuGENE HD method: HEK-293 GPR139 clone#33, CHO-TREx GPR139 clone#18, and SK-N-MC/CRE TREx GPR139 clone#35. Stable cell lines were established according to method previously described ([Liu et al., 2015]).
(§2) Intracellular calcium mobilization was measured with the BD calcium kit (BD Bioscience, San Jose, CA, United States). The recombinant cell lines expressing MC3R, MC4R, and MC5R with and without GPR139 or Gα16 were seeded in culture media at a density of 50,000 cells/well into 96-well black/clear-bottom poly-D-lysine treated tissue culture plates. Cells were incubated overnight at 37°C and 5% CO2. Next day, culture media was removed and cells were washed with HBSS prior to dye-loading for 1 h at 37°C and 5% CO2. Agonist stimulation and intracellular calcium measurements were done on the FLIPR Tetra (Molecular Devices, Sunnyvale, CA, United States). For receptor inhibition analysis, antagonists (1 μM HS-024 or 10 μM JNJ-3792165) were added off-line 15 min prior to agonist addition on the Tetra. For G-protein inhibitor experiments, cells were treated with 1 μM YM-254890 for 5 min prior to agonist additions on the Tetra. […] Responses in Figure 6 were normalized to its respective agonist response without antagonist. EC50s were calculated by fitting a three-parameter logistic curve using least-squares non-linear regression analysis as implemented in Graphpad Prism 7.0.
(Calcium assays in cells follow changes in intracellular calcium, usually with a dye or a luminescent sensor.)

Experiment [4] deals with T1, GPR139. Put plainly: [3H]JNJ-63533054 radioligand binding assay, membranes of CHO-TREx cells stably expressing human GPR139. More on the design: expressed in transfected cells; host or cells: CHO-TREx GPR139 clone#18. The conditions noted are these: 10 nM radioligand; CHO-TREx GPR139 membranes; read-out: pKi, displacement of [3H]JNJ-63533054 (converted). How it is done:
Reaction was terminated by filtration through GF/C filterplates pre-treated with PEI (polyethyleneimine) followed by washes with ice-cold TE buffer. Filterplates were dried in a 60°C oven followed by addition of Microscint-0. Bound radioactivity was read on a Topcount scintillation counter. […] Half-maximal inhibitory concentrations (IC50s) of test compounds were calculated by fitting a three-parameter logistic curve using least-squares non-linear regression analysis as implemented in Graphpad Prism 7.0. The Top plateau was fixed at 100 and the Bottom was fixed at 0.
A general note: In a radioligand displacement assay an active substance lowers the binding of a labelled ligand.

In experiment [5] the target is T1, GPR139. Kind of experiment: Calcium mobilization assay, antagonism at GPR139 (cell line not stated). It is filed as cell-based. Also noted: expressed in transfected cells; host or cells: CHO-TREx GPR139 clone#18. As to conditions: read-out: pKb, antagonist in calcium mobilization assay (converted). How it is done: as §2
In experiment [6] the target is MC3R + GPR139 (Homo sapiens, UniProt Q6DWJ6). Kind of experiment: Calcium mobilization, HEK-293 transiently expressing MC3R + GPR139. Format: cell-based. As to conditions: MC3R + GPR139; 10 μM JNJ-3792165 or 1 μM HS-024.
MC3R + GPR139, sequence (P41968 whole entry partner, one chain of several): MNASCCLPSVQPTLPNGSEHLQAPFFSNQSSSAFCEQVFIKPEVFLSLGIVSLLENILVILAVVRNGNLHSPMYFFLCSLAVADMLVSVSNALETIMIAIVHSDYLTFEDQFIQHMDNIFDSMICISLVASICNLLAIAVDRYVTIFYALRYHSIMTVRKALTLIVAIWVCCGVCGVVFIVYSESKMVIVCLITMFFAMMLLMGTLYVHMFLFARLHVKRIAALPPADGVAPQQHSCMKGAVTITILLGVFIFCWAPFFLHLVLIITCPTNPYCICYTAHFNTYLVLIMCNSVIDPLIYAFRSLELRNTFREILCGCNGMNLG
Description: Intracellular calcium mobilization was measured with the BD calcium kit (BD Bioscience, San Jose, CA, United States). The recombinant cell lines expressing MC3R, MC4R, and MC5R with and without GPR139 or Gα16 were seeded in culture media at a density of 50,000 cells/well into 96-well black/clear-bottom poly-D-lysine treated tissue culture plates. Cells were incubated overnight at 37°C and 5% CO2. Next day, culture media was removed and cells were washed with HBSS prior to dye-loading for 1 h at 37°C and 5% CO2. Agonist stimulation and intracellular calcium measurements were done on the FLIPR Tetra (Molecular Devices, Sunnyvale, CA, United States). […] EC50s were calculated by fitting a three-parameter logistic curve using least-squares non-linear regression analysis as implemented in Graphpad Prism 7.0.
The target in experiment [7] is MC4R + GPR139 (Homo sapiens, UniProt Q6DWJ6). Kind of experiment: Calcium mobilization, HEK-293 transiently expressing MC4R + GPR139. The conditions noted are these: MC4R + GPR139; 10 μM JNJ-3792165 or 1 μM HS-024. It is filed as cell-based. How it is done:
as §1, §2

Experiment [8] has as its target T1, GPR139. Also noted: method as in Liu et al., 2015. As to conditions: ref Liu et al., 2015; cited from earlier work.
Experiment [9] addresses T1, GPR139. Kind of experiment: Calcium mobilization, HEK-293 cells stably expressing human GPR139. Format: cell-based. More on the design: expressed in transfected cells. As to conditions: HEK-293 stable GPR139. How it is done: as §1, §2
For experiment [10], the target named is T1, GPR139. More on the design: expressed in transfected cells; host or cells: CHO-TREx GPR139 clone#18; method as in Nøhr et al. (2017b). As to conditions: ref Nøhr et al. (2017b), cited from earlier work; for Activation of GPR139, potency range in words: CHO cells stably expressing human GPR139.
Experiment [11] addresses T1, GPR139. Put plainly: Calcium mobilization, CHO-TREx cells stably expressing human GPR139. Also noted: expressed in transfected cells; host or cells: CHO-TREx GPR139 clone#18. Format: cell-based. The conditions noted are these: CHO-TREx stable GPR139.
Experiment [12] has as its target T1, GPR139. Put plainly: Calcium mobilization, SK-N-MC/CRE cells stably expressing human GPR139. Format: cell-based. More on the design: expressed in transfected cells; host or cells: CHO-TREx GPR139 clone#18. As to conditions: SK-N-MC/CRE stable GPR139. How it is done:
as §1, §2

Experiment [13] deals with MC4R + Gα16 (Homo sapiens, UniProt P32245). Put plainly: Calcium mobilization, CHO-K1 cells transiently expressing MC4R + Gα16. As to conditions: data not shown. Format: cell-based. More on the design: expressed in transfected cells; host or cells: CHO-K1, transient.
MC4R + Gα16, sequence (P32245 whole entry): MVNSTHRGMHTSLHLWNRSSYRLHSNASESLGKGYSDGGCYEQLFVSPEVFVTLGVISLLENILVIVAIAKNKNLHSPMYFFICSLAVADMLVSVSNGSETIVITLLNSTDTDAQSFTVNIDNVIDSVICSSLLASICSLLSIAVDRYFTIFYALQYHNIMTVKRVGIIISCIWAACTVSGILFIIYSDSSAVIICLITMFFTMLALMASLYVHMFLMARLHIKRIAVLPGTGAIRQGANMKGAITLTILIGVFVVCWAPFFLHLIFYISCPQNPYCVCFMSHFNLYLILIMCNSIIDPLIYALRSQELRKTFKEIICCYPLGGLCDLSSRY
The target in experiment [14] is T2, MC4R (Homo sapiens, UniProt P32245).
T2 construct: expressed in transfected cells; host or cells: HEK-293, pCIneo, transient (FuGene HD)
T2 sequence (P32245 whole entry): as above
Put plainly: Calcium mobilization, HEK-293 transiently expressing MC4R. Format: cell-based. The conditions noted are these: HEK293; HEK-293 transient MC4R alone; read-out: Emax, calcium release in MC4R expressing cells. How it is done:
as §1, §2

pEC50: −log10 of the molar value. Ends that are not written are not given here.

We go through five compounds from article PMC5863515, “Re-evaluation of Adrenocorticotropic Hormone and Melanocyte Stimulating Hormone Activation of GPR139 in Vitro” (Frontiers in Pharmacology, 2018).

One may read the pEC50 as −log10 of the EC50, conventionally taken in molar units. Broadly, the Emax is the maximal effect, on the per cent scale that the assay sets.

MC5R + GPR139, sequence (P33032 whole entry partner, one chain of several): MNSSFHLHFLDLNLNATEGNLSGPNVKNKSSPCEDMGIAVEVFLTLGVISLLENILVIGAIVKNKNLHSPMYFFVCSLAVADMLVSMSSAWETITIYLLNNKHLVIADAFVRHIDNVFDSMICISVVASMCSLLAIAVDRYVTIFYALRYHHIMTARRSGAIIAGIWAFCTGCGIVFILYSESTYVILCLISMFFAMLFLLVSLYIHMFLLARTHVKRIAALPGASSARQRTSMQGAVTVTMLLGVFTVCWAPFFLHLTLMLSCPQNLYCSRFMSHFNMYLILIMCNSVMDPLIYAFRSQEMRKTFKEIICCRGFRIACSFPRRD
MC4R + GPR139, sequence (P32245 whole entry partner, one chain of several): as the sequence (P32245 whole entry) above

`Cc1cccc(NC(=O)c2cc(C)n(Cc3c(Cl)cccc3Cl)n2)c1` [JNJ-3792165, 1H-pyrazole-3-carboxamide, 1-[(2,6-dichlorophenyl)methyl]-5-methyl-N-(3-methylphenyl)]: the “Inhibition at any receptor other than GPR139 (selectivity panel)” value in experiment [1] was “less than 50%”. For the same compound, the Kb is 39.8 nM in [2] (read-out: pKb, antagonist in [35S]GTPγS assay (converted)) and 126 nM in experiment [5]. The “Antagonist effect on ACTH, α-MSH and β-MSH induced calcium response” value in [3], in experiment [6] and in [7] was “did not block” throughout. For the same compound, the “Antagonist effect on calcium response to GPR139 agonists (JNJ-63533054, TC-09311, L-Trp)” value in experiment [3], in [6] and in experiment [7] was “fully inhibited” throughout. In addition, in [4], the Ki was 20 nM.

Consider `N[C@@H](Cc1ccccc1)C(=O)O` [L-Phe, L-phenylalanine], for which, in experiment [8], the negative-log EC50 (pEC50) is 3.52 to 4.52.

On to `CSCC[C@H](NC(=O)[C@H](CCCNC(=N)N)NC(=O)[C@H](Cc1ccc(O)cc1)NC(=O)[C@@H]1CCCN1C(=O)CNC(=O)[C@H](CCC(=O)O)NC(=O)[C@H](CC(=O)O)NC(=O)[C@H](CCCCN)NC(=O)[C@H](CCCCN)NC(=O)[C@H](CCC(=O)O)NC(=O)[C@H](C)N)C(=O)N[C@@H](CCC(=O)O)C(=O)N[C@@H](Cc1c[nH]cn1)C(=O)N[C@@H](Cc1ccccc1)C(=O)N[C@@H](CCCNC(=N)N)C(=O)N[C@@H](Cc1c[nH]c2ccccc12)C(=O)NCC(=O)N[C@@H](CO)C(=O)N1CCC[C@H]1C(=O)N1CCC[C@H]1C(=O)N[C@@H](CCCCN)C(=O)N[C@@H](CC(=O)O)C(=O)O` [β-MSH, β melanocyte stimulating hormone], for which, in experiment [2] (up to 30 μM), the “Activation of GPR139 ([35S]-GTPγS incorporation), in words” value is given as “did not activate GPR139”. Besides, the “Calcium mobilization activity, in words” value in experiment [9], in experiment [11] and in experiment [12] was “No activity was detected” each time. The “Activation of GPR139, potency range in words” value in experiment [10] is reported as “sub- to low micromolar range”. The “Calcium response in CHO-K1 cells co-expressing MC4R + Gα16” value in experiment [13] is recorded as “calcium response”. Also, the maximum response (Emax) in [14] was 24%.

In the case of HS-024, the “Antagonist effect on ACTH, α-MSH and β-MSH induced calcium response” value was “fully blocked” in experiment [3]; “rightward shift of the EC50” in [6]; “reduction in both potency and efficacy” in experiment [7]. Besides, the “Antagonist effect on calcium response to GPR139 agonists (JNJ-63533054, TC-09311, L-Trp)” value is “reduced the efficacy” in experiment [3], “had no effect” in experiment [6] and “had no effect” in [7].

As for “SYSMEHFRWGKPVGKKRRPVKVYPNGAEDESAEAFPLEF [ACTH, adrenocorticotropic hormone]”, in experiment [9], the “Calcium mobilization activity, in words” value is “did not increase calcium mobilization”. Further, in experiment [10], the “Activation of GPR139, potency range in words” value is “sub- to low micromolar range” and the “Fold less potent on GPR139 than on MC4R” value is given as 100 fold. Moreover, in [13], the “Calcium response in CHO-K1 cells co-expressing MC4R + Gα16” value is given as “calcium response”. In addition, the Emax in [14] was found to be 27%.
